# According to PMC8863796 (Communications Biology, 2022):
# Where “and” joins values, the source holds several entries; their conditions need not be identical. Equal entries are not always repeated. Entries after “also recorded” stand apart in the source; their conditions may differ. Where two headings read alike, the source gives them in different places.
# What was measured:
# Cytotoxicity assay (XTT) = assay type: cell-based; conditions: human
# Protocol: Monolayers of 1.5 × 10^4 cells in 96-well plates were treated for 3 days with various concentrations (semi-log dilutions from 1000 to 10 µM) of the antiviral drugs. Then, 5 mg/ml 2,3-bis-(2-methoxy-4-nitro-5-sulfophenyl)-2H-tetrazolium-5-carboxanilide (XTT) in DMEM was added to the cells in the presence of 0.01% N-methyl dibenzopyrazine methyl sulfate (PMS). After incubating for 4 h at 37 °C, the cells were measured in a spectrophotometer at 492 nm and 620 nm.
# SARS-CoV-2 [1] = assay type: cell-based; set-up: Response: unit not given here
# SARS-CoV-2 [2] = assay: microbe, parasite or virus in culture; assay type: cell-based; conditions: for EC25: concentration used in combinations; for virus titer: Calu-3, MOI 0.1, three columns per treatment
# [3] = target: SARS-CoV-2 exonuclease complex (nsp14/nsp10) (Severe acute respiratory syndrome coronavirus 2, UniProt P0DTD1); assay type: biochemical
# [4] = Table S-1, 3 days treatment, XTT, read-out: CC50
# [5] = Drug2 100 nM alone (Drug1 0 nM)
# [6] = Drug2 1000 nM alone (Drug1 0 nM)
# [7] = Drug2 5000 nM alone (Drug1 0 nM)
# [8] = Severe acute respiratory syndrome coronavirus 2, 48 h, Calu-3 cells, MOI 0.1, 48-72 h, PFU in Vero E6, NS5A inhibitor at fixed concentration in combinations
# [9] = Drug1 100 nM alone (Drug2 0 nM)
# [10] = Drug1 1000 nM alone (Drug2 0 nM)
# [11] = Drug1 10000 nM alone (Drug2 0 nM)
# [12] = combined with Ombitasvir, Calu-3 cells
# [13] = 30 nM nsp14/nsp10, 500 nM RNA, 30, 100, 300 µM
smiles,measurement,setting,value
COC(=O)N[C@H](C(=O)N1CCC[C@H]1c1nc(-c2ccc(-c3ccc(-c4c[nH]c([C@@H]5CCCN5C(=O)[C@@H](NC(=O)OC)C(C)C)n4)cc3)cc2)c[nH]1)C(C)C [Daclatasvir],CC50 at 3 days,Cytotoxicity assay (XTT); [4],38 ± 5 µM
same,Response (percentage of inhibition),"SARS-CoV-2 [1]; Conc1 0 nM, Conc2 100 nM",3%
same,Response (percentage of inhibition),"SARS-CoV-2 [1]; Conc1 0 nM, Conc2 500 nM",10%
same,Response (percentage of inhibition),"SARS-CoV-2 [1]; Conc1 0 nM, Conc2 1000 nM",45%
same,Response (percentage of inhibition),"SARS-CoV-2 [1]; Conc1 0 nM, Conc2 5000 nM",62%
same,Response,SARS-CoV-2 [1]; [5],3
same,Response,SARS-CoV-2 [1]; Drug2 500 nM alone (Drug1 0 nM),10
same,Response,SARS-CoV-2 [1]; [6],45
same,Response,SARS-CoV-2 [1]; [7],62
same,combination effect (SynergyFinder),SARS-CoV-2 [1]; with RDV,additive (between 10 and −10)
same,combination effect (SynergyFinder),SARS-CoV-2 [1]; with the other RdRp inhibitors tested (Fig. 8b-d),synergistic (scores above 10)
same,EC25,SARS-CoV-2 [2]; Calu-3 cells,0.5 µM
same,EC50,SARS-CoV-2 [2]; [8],0.7 µM
same,EC90,SARS-CoV-2 [2]; [8],3.8 µM
"NC(=O)c1nc(F)cnc1O [Favipiravir, 6-fluoro-3-hydroxy-2-pyrazinecarboxamide]",CC50 at 3 days,Cytotoxicity assay (XTT),670 ± 118 µM
same,Response,SARS-CoV-2 [1]; Drug1 10 nM alone (Drug2 0 nM),10
same,Response,SARS-CoV-2 [1]; [9],49
same,Response,SARS-CoV-2 [1]; [10],63
same,Response,SARS-CoV-2 [1]; [11],70
same,virus titer,SARS-CoV-2 [2]; Drug Concentration 0.01 μM,8.96E+05 PFU/mL and 1.41E+06 PFU/mL
same,virus titer,SARS-CoV-2 [2]; Drug Concentration 0.1 μM,5.76E+05 PFU/mL and 7.04E+05 PFU/mL
same,virus titer,SARS-CoV-2 [2]; Drug Concentration 1 μM,4.48E+05 PFU/mL and 5.12E+05 PFU/mL
same,virus titer,SARS-CoV-2 [2]; Drug Concentration 10 μM,4.16E+05 PFU/mL and 2.24E+05 PFU/mL
same,EC50,SARS-CoV-2 [2]; [8],7.8 µM
same,fold increase of potency,SARS-CoV-2 [2]; by Pibrentasvir (0.1 μM),tenfold
same,inhibition of SARS-CoV-2,SARS-CoV-2 [2]; [12],2 log10
same,reduction of virus replication,SARS-CoV-2 [2]; [12],99%
Cc1cccc(C)c1OCC(=O)N[C@@H](Cc1ccccc1)[C@@H](O)C[C@H](Cc1ccccc1)NC(=O)[C@H](C(C)C)N1CCCNC1=O [Lopinavir],inhibition of SARS-CoV-2 exonuclease activity,[3]; [13],"exonuclease activity was inhibited; also recorded: inhibit the SARS-CoV-2 exonuclease in a concentration-dependent manner, but with less potency than Pibrentasvir and Ombitasvir"
COC(=O)N[C@H](C(=O)N1CCC[C@H]1C(=O)Nc1ccc([C@@H]2CC[C@@H](c3ccc(NC(=O)[C@@H]4CCCN4C(=O)[C@@H](NC(=O)OC)C(C)C)cc3)N2c2ccc(C(C)(C)C)cc2)cc1)C(C)C [Ombitasvir],CC50 at 3 days,Cytotoxicity assay (XTT); [4],70 ± 12 µM
same,Response (percentage of inhibition),"SARS-CoV-2 [1]; Conc1 0 nM, Conc2 10 nM",2%
same,Response (percentage of inhibition),"SARS-CoV-2 [1]; Conc1 0 nM, Conc2 100 nM",20%
same,Response (percentage of inhibition),"SARS-CoV-2 [1]; Conc1 0 nM, Conc2 1000 nM",50%
same,Response (percentage of inhibition),"SARS-CoV-2 [1]; Conc1 0 nM, Conc2 5000 nM",75%
same,Response,SARS-CoV-2 [1]; Drug2 10 nM alone (Drug1 0 nM),2
same,Response,SARS-CoV-2 [1]; [5],20
same,Response,SARS-CoV-2 [1]; [6],50
same,Response,SARS-CoV-2 [1]; [7],75
same,combination effect (SynergyFinder),SARS-CoV-2 [1]; with Favipiravir,synergistic (scores above 10)
same,combination effect (SynergyFinder),SARS-CoV-2 [1]; with RDV,synergistic (scores above 10)
same,combination effect (SynergyFinder),SARS-CoV-2 [1]; with Sofosbuvir,synergistic (scores above 10)
same,combination effect (SynergyFinder),SARS-CoV-2 [1]; with Tenofovir,synergistic (scores above 10)
same,EC25,SARS-CoV-2 [2]; Calu-3 cells,0.1 µM
COC(=O)N[C@H](C(=O)N1CCC[C@H]1c1nc2cc([C@H]3CC[C@H](c4cc5nc([C@@H]6CCCN6C(=O)[C@@H](NC(=O)OC)[C@@H](C)OC)[nH]c5cc4F)N3c3cc(F)c(N4CCC(c5ccc(F)cc5)CC4)c(F)c3)c(F)cc2[nH]1)[C@@H](C)OC [Pibrentasvir],CC50 at 3 days,Cytotoxicity assay (XTT); [4],22 ± 3 µM
same,inhibition of SARS-CoV-2 exonuclease activity,"[3]; 500 nM RNA, 50 nM nsp14/nsp10, 37 °C, 15 min, varying amounts of inhibitor (Pibrentasvir 1, 10, 20 μM)",reduced exonuclease activity in a concentration-dependent manner
same,inhibition of SARS-CoV-2 exonuclease activity,"[3]; 20 μM, Favipiravir-, NHC- and AT-9010-terminated RNA",exonuclease activity was largely abrogated
same,inhibition of SARS-CoV-2 exonuclease activity,"[3]; 20 µM, RNA with delayed termination by Remdesivir, 400 nM RNA",exonuclease activity was inhibited
same,inhibition of SARS-CoV-2 exonuclease activity,"[3]; 20 µM, Sofosbuvir- and Remdesivir-terminated RNA",exonuclease activity was substantially inhibited
same,inhibition of SARS-CoV-2 exonuclease activity,"[3]; 20 µM, Tenofovir-terminated RNA",exonuclease activity was almost completely eliminated
same,Response (percentage of inhibition),"SARS-CoV-2 [1]; Conc1 0 nM, Conc2 10 nM",2%
same,Response (percentage of inhibition),"SARS-CoV-2 [1]; Conc1 0 nM, Conc2 100 nM",20%
same,Response (percentage of inhibition),"SARS-CoV-2 [1]; Conc1 0 nM, Conc2 1000 nM",50%
same,Response (percentage of inhibition),"SARS-CoV-2 [1]; Conc1 0 nM, Conc2 5000 nM",75%
same,Response,SARS-CoV-2 [1]; Drug2 10 nM alone (Drug1 0 nM),2
same,Response,SARS-CoV-2 [1]; [5],20
same,Response,SARS-CoV-2 [1]; [6],50
same,Response,SARS-CoV-2 [1]; [7],75
same,combination effect (SynergyFinder),SARS-CoV-2 [1]; with Favipiravir,synergistic (scores above 10)
same,combination effect (SynergyFinder),SARS-CoV-2 [1]; with RDV,synergistic (scores above 10)
same,combination effect (SynergyFinder),SARS-CoV-2 [1]; with Sofosbuvir,additive (between 10 and −10)
same,combination effect (SynergyFinder),SARS-CoV-2 [1]; with Tenofovir,additive (between 10 and −10)
same,EC25,SARS-CoV-2 [2]; Calu-3 cells,0.1 µM
CCC(CC)COC(=O)[C@H](C)N[P@](=O)(OC[C@H]1O[C@@](C#N)(c2ccc3c(N)ncnn23)[C@H](O)[C@@H]1O)Oc1ccccc1 [Remdesivir],CC50 at 3 days,Cytotoxicity assay (XTT); [4],480 ± 55 µM
same,Response (percentage of inhibition),"SARS-CoV-2 [1]; Conc1 1 nM, Conc2 0 nM",20%
same,Response (percentage of inhibition),"SARS-CoV-2 [1]; Conc1 10 nM, Conc2 0 nM",43%
same,Response (percentage of inhibition),"SARS-CoV-2 [1]; Conc1 100 nM, Conc2 0 nM",76.92%
same,Response (percentage of inhibition),"SARS-CoV-2 [1]; Conc1 1000 nM, Conc2 0 nM",99.13%
same,EC99 Mean,"SARS-CoV-2 [2]; Calu-3 cells, MOI 0.1, 48-72 h, PFU in Vero E6, NS5A inhibitor at fixed concentration in combinations",1.1 µM
same,virus titer,"SARS-CoV-2 [2]; Drug Concentration 0.01 μM, listed as RDV",6.40E+05 PFU/mL and 5.76E+05 PFU/mL and 6.08E+05 PFU/mL
same,virus titer,"SARS-CoV-2 [2]; Drug Concentration 0.1 μM, listed as RDV",3.20E+05 PFU/mL and 1.92E+05 PFU/mL and 2.56E+05 PFU/mL
same,virus titer,SARS-CoV-2 [2]; Drug Concentration 10 μM,2.00E+03 PFU/mL
same,fold improvement of efficacy at the 90% level,SARS-CoV-2 [2]; by Pibrentasvir (0.1 μM),six-
same,fold improvement of efficacy at the 99% level,SARS-CoV-2 [2]; by Pibrentasvir (0.1 μM),threefold
CC(C)c1nc(CN(C)C(=O)N[C@H](C(=O)N[C@@H](Cc2ccccc2)C[C@H](O)[C@H](Cc2ccccc2)NC(=O)OCc2cncs2)C(C)C)cs1 [Ritonavir],inhibition of SARS-CoV-2 exonuclease activity,[3]; [13],"exonuclease activity was inhibited; also recorded: inhibit the SARS-CoV-2 exonuclease in a concentration-dependent manner, but with less potency than Pibrentasvir and Ombitasvir"
CC(C)OC(=O)[C@H](C)N[P@](=O)(OC[C@H]1O[C@@H](n2ccc(=O)[nH]c2=O)[C@](C)(F)[C@@H]1O)Oc1ccccc1 [Sofosbuvir],CC50 at 3 days,Cytotoxicity assay (XTT); [4],512 ± 34 µM
same,Response (percentage of inhibition),"SARS-CoV-2 [1]; Conc1 10 nM, Conc2 0 nM",10%
same,Response (percentage of inhibition),"SARS-CoV-2 [1]; Conc1 100 nM, Conc2 0 nM",20%
same,Response (percentage of inhibition),"SARS-CoV-2 [1]; Conc1 1000 nM, Conc2 0 nM",74.62%
same,Response (percentage of inhibition),"SARS-CoV-2 [1]; Conc1 10000 nM, Conc2 0 nM",76.92%
same,virus titer,SARS-CoV-2 [2]; Drug Concentration 0.01 μM,6.40E+05 PFU/mL and 1.28E+06 PFU/mL and 9.60E+05 PFU/mL
same,virus titer,SARS-CoV-2 [2]; Drug Concentration 1 μM,3.52E+05 PFU/mL
"CC(C)OC(=O)OCOP(=O)(CO[C@H](C)Cn1cnc2c(N)ncnc21)OCOC(=O)OC(C)C [Tenofovir, Tenofovir disoproxil]",CC50 at 3 days,Cytotoxicity assay (XTT); [4],91 ± 25 µM
same,excision of the incorporated nucleotide analogue from RNA by the exonuclease,"[3]; no inhibitor, 37 °C, 15 min, compared with A-terminated natural RNA",mostly resistant to excision by the SARS-CoV-2 exonuclease
same,Response,SARS-CoV-2 [1]; Drug1 10 nM alone (Drug2 0 nM),5
same,Response,SARS-CoV-2 [1]; [9],30
same,Response,SARS-CoV-2 [1]; [10],58.46
same,Response,SARS-CoV-2 [1]; [11],88.46
same,virus titer,SARS-CoV-2 [2]; Drug Concentration 1 μM,1.02E+06 PFU/mL and 5.76E+05 PFU/mL and 7.98E+05 PFU/mL
same,virus titer,SARS-CoV-2 [2]; Drug Concentration 10 μM,8.00E+04 PFU/mL and 4.00E+04 PFU/mL and 6.00E+04 PFU/mL
same,EC50,SARS-CoV-2 [2]; [8],4.3 µM
same,fold increase of potency,SARS-CoV-2 [2]; by Pibrentasvir (0.1 μM),tenfold
